21 compounds from ChEMBL document CHEMBL1136877, “2,4(5)-diarylimidazoles as inhibitors of hNaV1.2 sodium channels: pharmacological evaluation and structure-property relationships” (Bioorg Med Chem, 2009) can be followed below.

Calls of active or inactive are those of the source. No cut-off for these calls is given here.

Data set [1] in a line: Dissociation constant, pKa by potentiometric pH-metric method. Type of data set: physicochemical.
Data set [2] can be described thus: Octanol-buffer partition coefficient, log D at pH 7.4 by shake-flask method. Type of data set: physicochemical.
In data set [3] the target is T1, Sodium channel protein type 2 subunit alpha (Homo sapiens, UniProt Q99250). The data set is described as follows: Inhibition of human Nav1.2 channel expressed in HEK cells at 10 uM by patch-clamp electrophysiology method. Type of data set: cell-based. To be noted: HEK293.
Target sequence in this assay (Q99250 whole entry, looked up): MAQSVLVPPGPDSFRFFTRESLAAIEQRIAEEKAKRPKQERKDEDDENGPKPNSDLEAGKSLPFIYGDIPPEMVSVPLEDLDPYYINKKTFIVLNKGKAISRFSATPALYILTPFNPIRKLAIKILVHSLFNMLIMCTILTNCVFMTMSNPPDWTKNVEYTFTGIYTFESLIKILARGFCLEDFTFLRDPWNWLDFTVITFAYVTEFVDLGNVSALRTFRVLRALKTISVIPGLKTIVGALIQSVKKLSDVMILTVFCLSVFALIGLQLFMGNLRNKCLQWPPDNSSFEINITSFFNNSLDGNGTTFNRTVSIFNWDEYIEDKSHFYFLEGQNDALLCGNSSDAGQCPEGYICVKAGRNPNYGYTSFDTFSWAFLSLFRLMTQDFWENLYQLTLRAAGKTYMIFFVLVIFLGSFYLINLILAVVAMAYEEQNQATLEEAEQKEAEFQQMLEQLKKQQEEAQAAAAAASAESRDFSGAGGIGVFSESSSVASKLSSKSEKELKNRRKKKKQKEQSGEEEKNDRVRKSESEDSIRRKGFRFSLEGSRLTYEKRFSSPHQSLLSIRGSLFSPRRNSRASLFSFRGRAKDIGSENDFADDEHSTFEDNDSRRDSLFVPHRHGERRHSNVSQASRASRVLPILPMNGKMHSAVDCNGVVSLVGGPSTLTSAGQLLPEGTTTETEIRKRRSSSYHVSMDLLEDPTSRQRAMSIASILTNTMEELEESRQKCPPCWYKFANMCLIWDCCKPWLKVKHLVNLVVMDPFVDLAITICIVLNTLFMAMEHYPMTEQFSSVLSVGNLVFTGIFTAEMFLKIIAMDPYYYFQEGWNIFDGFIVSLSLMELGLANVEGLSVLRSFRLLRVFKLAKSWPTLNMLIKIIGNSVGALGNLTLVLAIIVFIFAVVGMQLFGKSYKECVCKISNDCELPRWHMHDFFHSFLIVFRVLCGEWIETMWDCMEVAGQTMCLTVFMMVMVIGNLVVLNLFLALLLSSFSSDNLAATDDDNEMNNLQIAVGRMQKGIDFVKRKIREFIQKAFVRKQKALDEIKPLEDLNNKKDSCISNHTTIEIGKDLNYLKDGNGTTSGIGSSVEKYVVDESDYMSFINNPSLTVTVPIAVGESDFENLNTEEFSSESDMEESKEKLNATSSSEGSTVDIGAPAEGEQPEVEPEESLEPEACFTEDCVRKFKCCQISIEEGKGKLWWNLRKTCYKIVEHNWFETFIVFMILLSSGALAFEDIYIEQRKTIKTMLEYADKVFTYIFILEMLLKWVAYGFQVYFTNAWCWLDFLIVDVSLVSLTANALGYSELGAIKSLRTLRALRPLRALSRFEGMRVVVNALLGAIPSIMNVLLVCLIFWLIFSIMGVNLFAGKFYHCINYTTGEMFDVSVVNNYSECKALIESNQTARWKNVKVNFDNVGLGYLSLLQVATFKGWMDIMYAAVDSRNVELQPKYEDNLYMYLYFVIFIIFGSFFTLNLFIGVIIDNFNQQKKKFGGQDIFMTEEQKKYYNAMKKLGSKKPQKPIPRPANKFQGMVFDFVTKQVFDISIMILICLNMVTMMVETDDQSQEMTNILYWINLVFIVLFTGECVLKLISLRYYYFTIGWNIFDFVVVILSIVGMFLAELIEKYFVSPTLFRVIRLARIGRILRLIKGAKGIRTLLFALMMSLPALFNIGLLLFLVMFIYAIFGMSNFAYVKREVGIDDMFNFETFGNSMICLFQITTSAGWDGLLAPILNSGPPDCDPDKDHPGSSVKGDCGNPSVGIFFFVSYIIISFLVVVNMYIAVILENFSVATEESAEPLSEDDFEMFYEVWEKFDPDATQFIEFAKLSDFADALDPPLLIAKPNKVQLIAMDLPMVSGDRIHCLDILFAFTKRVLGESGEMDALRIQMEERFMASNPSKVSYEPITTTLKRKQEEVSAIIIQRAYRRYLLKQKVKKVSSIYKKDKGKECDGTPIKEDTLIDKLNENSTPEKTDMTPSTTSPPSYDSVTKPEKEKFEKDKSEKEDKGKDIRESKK
Data set [4] concerns the target T1, Sodium channel protein type 2 subunit alpha. The data set can be described thus: Inhibition of human Nav1.2 channel expressed in HEK cells at 100 uM by patch-clamp electrophysiology method. To be noted: HEK293. It counts as cell-based.
Target sequence in this assay (Q99250 whole entry, looked up): as above
Data set [5] shares this target. The data set can be described thus: Inhibition of human Nav1.2 channel expressed in HEK cells by patch-clamp electrophysiology method. It counts as cell-based, HEK293. On the technique in general: Patch clamp records ionic current or voltage across a cell membrane.
Target sequence in this assay (Q99250 whole entry): as the sequence (Q99250 whole entry, looked up) above

For orientation: pKa means the pH at which an ionisable group is half protonated. High values mean a weaker acid or stronger base, low ones a stronger acid or weaker base. Usually logD stands for lipophilicity at a set pH, counting ionised and neutral species. `FC(F)(F)c1ccc(-c2nc(-c3ccccc3)c[nH]2)cc1` yielded a pKa in data set [1] of 5.19. The compound also gave a logD in data set [2] of 4.9.

The term inhibition denotes how much of the control response was suppressed. `O=[N+]([O-])c1ccc(-c2c[nH]c(-c3ccccc3)n2)cc1`: the inhibition result in data set [3] is “inactive”. The compound further showed an inhibition in data set [4] of 30.3%. Moreover, the pKa in data set [1] came out at 5.12. The logD in data set [2] turned out to be 3.95.

The IC50 is the concentration needed to halve the response being measured. With `Clc1ccc(-c2nc(-c3ccccc3)c[nH]2)cc1`, the inhibition in data set [3] turned out to be 92.5%; in data set [4] it was 100%. Also, it took 1400 nM to reach half-maximal inhibition in data set [5] (IC50). Moreover, in data set [1], the pKa was 5.37. For the same compound, in data set [2], the logD was 4.27.

As to `COc1cccc(-c2nc(-c3ccccc3)c[nH]2)c1`, the inhibition result in data set [3] was “inactive”. Also, in data set [4], the inhibition came out at 41.7%. The same compound displayed a pKa in data set [1] of 5.57. In data set [2], this compound showed a logD of 3.84.

As to `O=[N+]([O-])c1cccc(-c2nc(-c3ccccc3)c[nH]2)c1`, the inhibition entry in data set [3] was “inactive”. The compound further gave an inhibition in data set [4] of 20.4%. The pKa in data set [1] stood at 4.92. In data set [2], the logD came to 3.89.

Turning to `Clc1ccc(-c2c[nH]c(-c3ccccc3)n2)cc1`, the inhibition in data set [3] turned out to be 31.5%; in data set [4], 96.6%. In data set [1], the pKa was determined as 5.47. In data set [2], this compound displayed a logD of 4.53.

In data set [1], `COc1ccc(-c2nc(-c3ccccc3)c[nH]2)cc1` registered a pKa of 6.03. The logD in data set [2] stood at 3.62.

As for `FC(F)(F)c1ccc(-c2c[nH]c(-c3ccccc3)n2)cc1`, the values for the inhibition in data set [3] and in data set [4] were 91.6% and 100%, respectively. In addition, in data set [5], the IC50 amounted to 1400 nM. The pKa in data set [1] worked out at 5.31. The logD in data set [2] was 4.78.

On to `FC(F)(F)c1cccc(-c2c[nH]c(-c3ccc(Cl)cc3)n2)c1`, for which the inhibition is 27.5% in data set [3] and 43.6% in data set [4]. Further, the IC50 in data set [5] is above 100000 nM.

Turning to `O=[N+]([O-])c1ccc(-c2nc(-c3ccccc3)c[nH]2)cc1`, the inhibition worked out at 57.1% in data set [3] and 92.6% in data set [4]. In data set [1], this compound came in with a pKa of 4.74. In data set [2], the logD worked out at 4.06.

Take `COc1cccc(-c2c[nH]c(-c3ccccc3)n2)c1`: the inhibition in data set [3] was 14.2%; in data set [4], 35.6%. The pKa in data set [1] was 5.58. In addition, the logD in data set [2] came out at 3.74.

Turning to `Nc1nnc(-c2cccc(Cl)c2Cl)c(N)n1` [LAMOTRIGINE], the values for the inhibition in data set [3] and in data set [4] were 12.1% and 35.1%, respectively. The compound further came in with an IC50 in data set [5] above 100000 nM.

Turning to `Clc1cccc(-c2nc(-c3ccccc3)c[nH]2)c1`, the inhibition was determined as 7.5% in data set [3] and 92.2% in data set [4]. In data set [1], the pKa was 5.12. Besides, the logD in data set [2] is 4.54.

For `FC(F)(F)c1cccc(-c2nc(-c3ccccc3)c[nH]2)c1`, the inhibition in data set [3] came out at 49.2%; in data set [4] it was 95.2%. Moreover, the pKa in data set [1] worked out at 5.11. In data set [2], this compound showed a logD of 4.54.

`Clc1cccc(-c2c[nH]c(-c3ccccc3)n2)c1` returned a pKa in data set [1] of 5.45. This compound also came in with a logD in data set [2] of 4.76.

Regarding `FC(F)(F)c1cccc(-c2c[nH]c(-c3ccccc3)n2)c1`, the inhibition in data set [3] came to 82.9%; in data set [4] it was 100%. This compound also came in with an IC50 in data set [5] of 2700 nM. This compound also came in with a pKa in data set [1] of 5.27. This compound came in with a logD in data set [2] of 4.72.

As to `FC(F)(F)c1cccc(-c2c[nH]c(-c3cccc(C(F)(F)F)c3)n2)c1`, the inhibition in data set [3] and in data set [4] was 100% in each case. This compound also displayed an IC50 in data set [5] of 200 nM.

`c1ccc(-c2c[nH]c(-c3ccccc3)n2)cc1`: the values for the inhibition in data set [3] and in data set [4] were 7.8% and 80.5%, respectively. Also, in data set [5], the IC50 came to 40600 nM. Besides, the pKa in data set [1] came to 5.65. This compound also yielded a logD in data set [2] of 3.72.

For `COc1ccc(-c2c[nH]c(-c3ccccc3)n2)cc1`, in data set [3], the inhibition result is “inactive”. Further, the inhibition in data set [4] amounted to 33.3%. The same compound showed a pKa in data set [1] of 5.83. This compound showed a logD in data set [2] of 3.66.

As for `O=[N+]([O-])c1cccc(-c2c[nH]c(-c3ccccc3)n2)c1`, the results for the inhibition in data set [3] and in data set [4] were 15.6% and 85.8%, respectively. In addition, the pKa in data set [1] turned out to be 4.82. The logD in data set [2] amounted to 3.9.

Take `O=[N+]([O-])c1ccc(-c2nc(-c3cccc(C(F)(F)F)c3)c[nH]2)cc1`: the inhibition was found to be 86.9% in data set [3] and 100% in data set [4]. This compound also yielded an IC50 in data set [5] of 2500 nM.
